Data reported in ChEMBL document CHEMBL4507276 (2021).

Experiments:
[1] = biological target: Alpha-1D adrenergic receptor (Homo sapiens) (UniProt P25100); assay: ALPHA1D/H Eurofins-Panlabs selectivity data (BI); details: Compound concentration 10.0 uM
[2] = biological target: Voltage-dependent N-type calcium channel subunit alpha-1B (Rattus norvegicus) (UniProt Q02294); assay: CA+/N/R Cerep selectivity data (BI); details: Compound concentration 20.0 uM
[3] = biological target: Glutamate receptor ionotropic, NMDA 1 (Rattus norvegicus) (UniProt P35439); assay: NMDAGLSI/RA Eurofins-Panlabs selectivity data (BI); details: Compound concentration 10.0 uM
[4] = biological target: T1, Activin receptor type-1B (Homo sapiens) (UniProt P36896); assay: ACVR1B Invitrogen selectivity data (BI); details: Compound concentration 3.0 uM
T1 sequence (whole entry): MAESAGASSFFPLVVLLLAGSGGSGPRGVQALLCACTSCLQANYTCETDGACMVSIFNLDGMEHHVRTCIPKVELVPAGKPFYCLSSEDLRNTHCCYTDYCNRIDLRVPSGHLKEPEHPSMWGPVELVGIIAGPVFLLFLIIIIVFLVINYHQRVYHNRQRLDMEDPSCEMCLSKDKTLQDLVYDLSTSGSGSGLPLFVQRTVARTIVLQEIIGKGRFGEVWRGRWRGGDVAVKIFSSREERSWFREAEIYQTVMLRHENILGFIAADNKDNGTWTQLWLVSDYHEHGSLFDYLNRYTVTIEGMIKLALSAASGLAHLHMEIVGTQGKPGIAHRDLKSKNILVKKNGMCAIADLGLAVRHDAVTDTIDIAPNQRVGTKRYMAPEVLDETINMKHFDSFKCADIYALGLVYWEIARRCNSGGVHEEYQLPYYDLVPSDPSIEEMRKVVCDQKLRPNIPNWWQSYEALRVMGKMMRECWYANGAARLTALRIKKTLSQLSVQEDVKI

[5] = biological target: AMPK alpha2/beta1/gamma1 (Homo sapiens) (UniProt P54646+P54619+Q9Y478); assay: AMPK A2B1G1 Invitrogen selectivity data (BI); type: protein-complex assay; details: Compound concentration 3.0 uM
[6] = system: Tyrosine-protein kinase ABL1 (Homo sapiens), P00519 [Y253F]; assay: ABL1 Y253F Invitrogen selectivity data (BI); details: Compound concentration 3.0 uM
[7] = biological target: Tyrosine-protein kinase receptor UFO (Homo sapiens) (UniProt P30530); assay: AXL Invitrogen selectivity data (BI); details: Compound concentration 3.0 uM
[8] = biological target: Histamine H1 receptor (Homo sapiens) (UniProt P35367); assay: H1/PYRIL/HS Cerep selectivity data (BI); details: Compound concentration 20.0 uM
[9] = biological target: Vasoactive intestinal polypeptide receptor 1 (Homo sapiens) (UniProt P32241); assay: VIP1/VPAC1/H Cerep selectivity data (BI); details: Compound concentration 20.0 uM
[10] = biological target: CDK8/Cyclin C (Homo sapiens) (UniProt P49336+P24863); assay: CDK8_CYCLINC Invitrogen selectivity data (BI); type: protein-complex assay; details: Compound concentration 3.0 uM
[11] = biological target: T2, Serine/threonine-protein kinase D3 (Homo sapiens) (UniProt O94806); assay: PRKCN Invitrogen selectivity data (BI); details: Compound concentration 3.0 uM
T2 sequence (whole entry): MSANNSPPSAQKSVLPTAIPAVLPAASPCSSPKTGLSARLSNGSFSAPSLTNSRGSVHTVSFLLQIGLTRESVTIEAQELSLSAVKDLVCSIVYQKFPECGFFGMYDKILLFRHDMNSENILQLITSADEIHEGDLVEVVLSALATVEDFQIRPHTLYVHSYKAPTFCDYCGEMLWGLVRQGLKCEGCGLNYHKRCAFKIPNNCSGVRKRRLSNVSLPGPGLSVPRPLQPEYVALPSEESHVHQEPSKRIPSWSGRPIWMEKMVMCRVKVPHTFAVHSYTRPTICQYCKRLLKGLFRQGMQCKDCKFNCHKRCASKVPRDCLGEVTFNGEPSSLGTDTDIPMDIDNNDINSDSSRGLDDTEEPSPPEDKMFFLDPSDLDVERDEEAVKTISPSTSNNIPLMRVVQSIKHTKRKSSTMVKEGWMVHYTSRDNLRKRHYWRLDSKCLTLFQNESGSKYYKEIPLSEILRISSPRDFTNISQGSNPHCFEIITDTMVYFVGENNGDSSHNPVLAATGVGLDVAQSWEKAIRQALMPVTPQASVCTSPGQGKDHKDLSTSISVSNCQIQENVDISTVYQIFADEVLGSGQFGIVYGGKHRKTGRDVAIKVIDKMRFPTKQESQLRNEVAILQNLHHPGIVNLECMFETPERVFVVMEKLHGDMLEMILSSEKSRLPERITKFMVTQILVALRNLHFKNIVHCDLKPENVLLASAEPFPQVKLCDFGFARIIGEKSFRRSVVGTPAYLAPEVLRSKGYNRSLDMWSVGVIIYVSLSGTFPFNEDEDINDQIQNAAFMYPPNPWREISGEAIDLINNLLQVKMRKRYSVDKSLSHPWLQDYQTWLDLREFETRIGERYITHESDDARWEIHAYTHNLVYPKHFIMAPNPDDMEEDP

[12] = biological target: Beta-2 adrenergic receptor (Homo sapiens) (UniProt P07550); assay: BETA2/HUM Cerep selectivity data (BI); details: filed as antagonist, Compound concentration 20.0 uM
[13] = biological target: Prostaglandin G/H synthase 2 (Homo sapiens) (UniProt P35354); assay: COX2_HU Cerep selectivity data (BI); details: Compound concentration 20.0 uM
[14] = biological target: Ribosomal protein S6 kinase alpha-1 (Homo sapiens) (UniProt Q15418); assay: RPS6KA1 Invitrogen selectivity data (BI); details: Compound concentration 3.0 uM
[15] = biological target: Sodium/potassium-transporting ATPase subunit alpha-1 (Sus scrofa) (UniProt P05024); assay: ATPASE(NA/K) Cerep selectivity data (BI); details: Compound concentration 20.0 uM
[16] = biological target: Glutamate receptor ionotropic, kainate 1 (Rattus norvegicus) (UniProt P22756); assay: KAINATE/R Eurofins-Panlabs selectivity data (BI); details: Compound concentration 10.0 uM
[17] = biological target: C-C chemokine receptor type 2 (Homo sapiens) (UniProt P41597); assay: CCR2/H AG Cerep selectivity data (BI); details: filed as agonist, Compound concentration 20.0 uM
[18] = biological target: Casein kinase I isoform epsilon (Homo sapiens) (UniProt P49674); assay: CSNK1E Invitrogen selectivity data (BI); details: Compound concentration 3.0 uM
[19] = biological target: G protein-coupled receptor kinase 4 (Homo sapiens) (UniProt P32298); assay: GRK4 Invitrogen selectivity data (BI); details: Compound concentration 3.0 uM
[20] = biological target: SRSF protein kinase 2 (Homo sapiens) (UniProt P78362); assay: SRPK2 Invitrogen selectivity data (BI); details: Compound concentration 3.0 uM

Measured: residual activity

Chain of Casein kinase I isoform epsilon (Homo sapiens) (P49674 whole entry, looked up, canonical isoform): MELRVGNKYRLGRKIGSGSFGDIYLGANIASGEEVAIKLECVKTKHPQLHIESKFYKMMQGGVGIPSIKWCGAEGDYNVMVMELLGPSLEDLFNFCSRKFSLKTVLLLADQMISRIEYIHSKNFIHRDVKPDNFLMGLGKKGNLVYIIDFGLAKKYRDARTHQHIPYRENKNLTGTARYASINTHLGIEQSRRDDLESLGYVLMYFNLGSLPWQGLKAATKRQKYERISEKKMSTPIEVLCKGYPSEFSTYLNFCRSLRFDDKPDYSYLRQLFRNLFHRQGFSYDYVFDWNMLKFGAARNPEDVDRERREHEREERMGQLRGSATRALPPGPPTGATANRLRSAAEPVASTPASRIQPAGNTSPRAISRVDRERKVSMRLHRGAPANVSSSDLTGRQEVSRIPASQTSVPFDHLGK
Chain of G protein-coupled receptor kinase 4 (Homo sapiens) (P32298 whole entry, looked up): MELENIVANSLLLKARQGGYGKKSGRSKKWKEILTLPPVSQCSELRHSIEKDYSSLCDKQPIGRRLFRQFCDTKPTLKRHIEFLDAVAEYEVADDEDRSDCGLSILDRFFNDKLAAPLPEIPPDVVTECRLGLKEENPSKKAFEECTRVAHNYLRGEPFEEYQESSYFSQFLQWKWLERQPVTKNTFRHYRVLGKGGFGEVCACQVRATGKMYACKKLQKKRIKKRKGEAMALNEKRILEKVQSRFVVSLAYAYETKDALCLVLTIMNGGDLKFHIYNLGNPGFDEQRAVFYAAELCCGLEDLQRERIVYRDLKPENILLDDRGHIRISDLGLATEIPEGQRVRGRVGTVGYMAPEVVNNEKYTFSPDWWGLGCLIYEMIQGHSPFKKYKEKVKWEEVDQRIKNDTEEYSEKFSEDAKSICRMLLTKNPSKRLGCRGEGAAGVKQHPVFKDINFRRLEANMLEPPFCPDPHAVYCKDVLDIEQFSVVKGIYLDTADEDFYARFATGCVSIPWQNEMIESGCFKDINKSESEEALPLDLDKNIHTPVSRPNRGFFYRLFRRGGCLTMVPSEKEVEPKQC
Chain of Beta-2 adrenergic receptor (Homo sapiens) (P07550 whole entry, looked up): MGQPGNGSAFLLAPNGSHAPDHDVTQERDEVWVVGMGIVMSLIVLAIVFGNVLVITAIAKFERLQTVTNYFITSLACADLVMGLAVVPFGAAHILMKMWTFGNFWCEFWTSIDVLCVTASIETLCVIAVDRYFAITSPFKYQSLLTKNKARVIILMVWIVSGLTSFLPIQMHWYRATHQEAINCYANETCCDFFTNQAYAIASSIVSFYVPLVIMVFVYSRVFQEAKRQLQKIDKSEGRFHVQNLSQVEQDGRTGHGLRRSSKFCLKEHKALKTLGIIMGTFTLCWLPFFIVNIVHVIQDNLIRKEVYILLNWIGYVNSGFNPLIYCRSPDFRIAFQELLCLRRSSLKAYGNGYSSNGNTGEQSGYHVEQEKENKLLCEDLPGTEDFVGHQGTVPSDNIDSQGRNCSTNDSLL
Chain of Alpha-1D adrenergic receptor (Homo sapiens) (P25100 whole entry): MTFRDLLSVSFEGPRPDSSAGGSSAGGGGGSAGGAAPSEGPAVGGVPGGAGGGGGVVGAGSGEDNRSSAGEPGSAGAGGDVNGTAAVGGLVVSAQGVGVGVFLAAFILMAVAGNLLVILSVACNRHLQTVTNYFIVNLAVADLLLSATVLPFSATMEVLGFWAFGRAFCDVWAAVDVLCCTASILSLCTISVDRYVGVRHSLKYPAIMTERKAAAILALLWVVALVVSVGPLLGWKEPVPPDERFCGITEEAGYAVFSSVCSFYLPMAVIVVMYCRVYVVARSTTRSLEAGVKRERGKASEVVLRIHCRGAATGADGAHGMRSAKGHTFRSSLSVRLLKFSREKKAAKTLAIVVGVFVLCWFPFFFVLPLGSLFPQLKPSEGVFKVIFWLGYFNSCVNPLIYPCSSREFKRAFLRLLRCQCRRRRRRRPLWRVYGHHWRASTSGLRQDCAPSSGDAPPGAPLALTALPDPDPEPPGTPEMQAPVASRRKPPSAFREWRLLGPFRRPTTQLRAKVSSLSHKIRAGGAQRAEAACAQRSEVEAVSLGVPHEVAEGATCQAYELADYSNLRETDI
Chain of SRSF protein kinase 2 (Homo sapiens) (P78362 whole entry, looked up): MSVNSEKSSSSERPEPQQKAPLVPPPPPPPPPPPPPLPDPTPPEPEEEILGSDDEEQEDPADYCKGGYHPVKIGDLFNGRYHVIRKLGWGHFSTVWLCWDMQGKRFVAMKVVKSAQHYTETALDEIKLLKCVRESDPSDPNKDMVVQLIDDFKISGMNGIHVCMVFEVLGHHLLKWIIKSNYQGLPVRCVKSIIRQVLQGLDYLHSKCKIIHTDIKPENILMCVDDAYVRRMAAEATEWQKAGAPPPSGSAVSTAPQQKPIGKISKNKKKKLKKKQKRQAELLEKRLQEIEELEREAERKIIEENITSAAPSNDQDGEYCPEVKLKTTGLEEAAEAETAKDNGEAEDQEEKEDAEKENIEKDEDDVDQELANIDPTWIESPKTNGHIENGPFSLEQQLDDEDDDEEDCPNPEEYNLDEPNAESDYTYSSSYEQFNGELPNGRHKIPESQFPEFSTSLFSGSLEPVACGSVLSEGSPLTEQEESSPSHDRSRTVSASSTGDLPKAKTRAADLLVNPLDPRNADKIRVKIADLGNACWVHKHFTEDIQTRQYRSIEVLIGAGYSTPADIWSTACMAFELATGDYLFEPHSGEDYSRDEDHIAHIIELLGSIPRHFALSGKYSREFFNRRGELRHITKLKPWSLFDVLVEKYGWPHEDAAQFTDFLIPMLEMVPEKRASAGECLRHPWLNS
Chain of AMPK alpha2/beta1/gamma1 (Homo sapiens) (P54619 whole entry partner): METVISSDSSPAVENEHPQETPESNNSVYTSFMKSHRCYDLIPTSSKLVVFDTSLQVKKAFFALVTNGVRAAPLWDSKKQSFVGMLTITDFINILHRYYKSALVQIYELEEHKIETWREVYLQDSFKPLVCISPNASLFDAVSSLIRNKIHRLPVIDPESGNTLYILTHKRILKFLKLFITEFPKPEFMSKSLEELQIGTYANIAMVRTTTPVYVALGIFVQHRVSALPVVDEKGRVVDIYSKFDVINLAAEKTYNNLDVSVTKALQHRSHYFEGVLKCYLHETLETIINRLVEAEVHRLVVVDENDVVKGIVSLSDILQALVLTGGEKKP
Chain of AMPK alpha2/beta1/gamma1 (Homo sapiens) (P54646 whole entry): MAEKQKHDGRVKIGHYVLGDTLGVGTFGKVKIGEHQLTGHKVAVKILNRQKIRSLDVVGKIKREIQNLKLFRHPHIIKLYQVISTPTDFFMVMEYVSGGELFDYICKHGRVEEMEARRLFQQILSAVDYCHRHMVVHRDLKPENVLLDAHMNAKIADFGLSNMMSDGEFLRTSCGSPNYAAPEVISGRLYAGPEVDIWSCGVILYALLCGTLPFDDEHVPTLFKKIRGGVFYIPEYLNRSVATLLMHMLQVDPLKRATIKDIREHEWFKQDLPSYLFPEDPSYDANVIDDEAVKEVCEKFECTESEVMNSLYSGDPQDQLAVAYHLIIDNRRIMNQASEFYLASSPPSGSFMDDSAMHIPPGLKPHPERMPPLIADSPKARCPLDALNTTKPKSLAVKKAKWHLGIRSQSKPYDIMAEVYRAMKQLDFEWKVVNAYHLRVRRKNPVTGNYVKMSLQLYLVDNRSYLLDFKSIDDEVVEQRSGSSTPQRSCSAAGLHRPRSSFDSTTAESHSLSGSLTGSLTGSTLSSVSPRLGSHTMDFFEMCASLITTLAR
Chain of AMPK alpha2/beta1/gamma1 (Homo sapiens) (Q9Y478 2-270 partner limits assumed): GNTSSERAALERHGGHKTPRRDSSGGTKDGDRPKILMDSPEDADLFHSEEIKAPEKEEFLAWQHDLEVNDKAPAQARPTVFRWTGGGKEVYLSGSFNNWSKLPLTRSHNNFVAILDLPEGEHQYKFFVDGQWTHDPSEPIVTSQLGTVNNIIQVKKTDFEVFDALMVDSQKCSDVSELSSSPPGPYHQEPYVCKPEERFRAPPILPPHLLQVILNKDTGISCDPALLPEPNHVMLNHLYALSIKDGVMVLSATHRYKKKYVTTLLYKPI
Chain of Prostaglandin G/H synthase 2 (Homo sapiens) (P35354 whole entry): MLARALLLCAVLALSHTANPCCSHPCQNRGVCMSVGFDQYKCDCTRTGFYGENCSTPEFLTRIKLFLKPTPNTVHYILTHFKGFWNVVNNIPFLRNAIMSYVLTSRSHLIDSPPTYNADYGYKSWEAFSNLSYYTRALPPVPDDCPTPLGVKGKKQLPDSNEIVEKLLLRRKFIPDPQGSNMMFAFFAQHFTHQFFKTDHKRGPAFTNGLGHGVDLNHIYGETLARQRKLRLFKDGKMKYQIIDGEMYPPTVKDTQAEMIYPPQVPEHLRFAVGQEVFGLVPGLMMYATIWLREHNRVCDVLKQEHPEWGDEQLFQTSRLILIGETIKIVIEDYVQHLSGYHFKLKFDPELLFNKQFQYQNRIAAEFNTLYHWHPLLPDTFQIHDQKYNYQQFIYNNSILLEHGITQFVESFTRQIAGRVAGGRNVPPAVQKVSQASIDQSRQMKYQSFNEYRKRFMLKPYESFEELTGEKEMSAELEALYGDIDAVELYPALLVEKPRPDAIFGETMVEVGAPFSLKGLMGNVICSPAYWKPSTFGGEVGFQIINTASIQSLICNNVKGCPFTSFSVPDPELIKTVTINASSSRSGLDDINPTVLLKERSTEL
Chain of Histamine H1 receptor (Homo sapiens) (P35367 whole entry): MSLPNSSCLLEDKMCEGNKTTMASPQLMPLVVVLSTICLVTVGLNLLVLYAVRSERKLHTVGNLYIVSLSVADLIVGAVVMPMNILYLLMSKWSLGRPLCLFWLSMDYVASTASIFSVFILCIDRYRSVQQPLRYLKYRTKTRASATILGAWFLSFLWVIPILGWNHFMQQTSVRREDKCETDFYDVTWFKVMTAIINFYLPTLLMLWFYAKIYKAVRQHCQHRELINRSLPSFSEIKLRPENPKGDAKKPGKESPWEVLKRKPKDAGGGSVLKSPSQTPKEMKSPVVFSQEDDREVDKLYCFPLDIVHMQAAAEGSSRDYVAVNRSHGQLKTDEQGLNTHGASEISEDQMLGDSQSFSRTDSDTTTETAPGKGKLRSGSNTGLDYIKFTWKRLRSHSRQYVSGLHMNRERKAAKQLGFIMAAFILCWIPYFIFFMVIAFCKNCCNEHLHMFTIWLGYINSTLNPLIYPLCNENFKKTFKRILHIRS

CN(C)C(=O)Cn1cc(-c2nc([C@@](C)(c3ccc(-c4cnc(N)nc4)cc3)C3CC3)no2)cn1 [BI 665915]
inactive: [1] 107% | [2] 96% | [3] 90% | [4] 104% | [5] 100% | [6] 80% | [7] 95.5% | [8] 89% | [9] 109% | [10] 94% | [11] 94.5% | [12] 98% | [13] 64% | [14] 96% | [15] 99% | [16] 90% | [17] 109% | [18] 95% | [19] 102% | [20] 98%
